Active and inactive are the calls of the source.
Experiments:
[1] = HIV-1 Vif–A3G interaction blockers – biochemical, TR-FRET, GST-Vif 1-94, biotin-A3G peptide, dose response retest, primary screen (AID 1117319); type: functional;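 note: TR-FRET signal of purified GST-Vif binding a biotinylated A3G peptide; inhibitors lower the FRET signal by blocking Vif and A3G binding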
[2] = M. tuberculosis H37Rv growth inhibitors, H37Rv strain (AID 1626); type: functional
[3] = molecular target: T1, Leucine aminopeptidase (Plasmodium falciparum 3D7, UniProt Q8IL11); test: P. falciparum M17LAP inhibitors, primary screen, biochemical, fluorogenic H-Leu-NHMec substrate, 1536-well (AID 1619); type: functional
T1 sequence (Q8IL11 whole entry): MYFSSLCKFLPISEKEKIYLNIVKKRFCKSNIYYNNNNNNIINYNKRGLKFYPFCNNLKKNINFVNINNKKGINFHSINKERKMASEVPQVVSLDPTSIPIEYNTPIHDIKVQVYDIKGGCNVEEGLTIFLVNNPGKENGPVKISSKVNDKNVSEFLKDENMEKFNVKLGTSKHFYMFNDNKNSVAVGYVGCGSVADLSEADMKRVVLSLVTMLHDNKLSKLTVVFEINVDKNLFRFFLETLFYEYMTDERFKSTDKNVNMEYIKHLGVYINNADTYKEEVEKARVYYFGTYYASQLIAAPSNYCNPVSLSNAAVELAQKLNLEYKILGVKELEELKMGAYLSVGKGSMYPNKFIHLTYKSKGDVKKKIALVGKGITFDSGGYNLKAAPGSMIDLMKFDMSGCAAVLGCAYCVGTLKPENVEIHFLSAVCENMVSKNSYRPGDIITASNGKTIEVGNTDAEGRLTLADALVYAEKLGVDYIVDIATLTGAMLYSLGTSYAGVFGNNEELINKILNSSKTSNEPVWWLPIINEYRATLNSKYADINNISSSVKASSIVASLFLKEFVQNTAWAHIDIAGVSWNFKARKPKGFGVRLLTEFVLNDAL

[4] = molecular target: Genome polyprotein (dengue virus type 2, UniProt P29990); test: flavivirus cap methylation enzyme inhibition – biochemical, confirmation dose response, primary screen (AID 588689); type: functional
[5] = molecular target: T2, Caspase-6 (Homo sapiens, UniProt P55212); test: inhibition of CASP6 peptide cleavage – biochemical, VEID-R110 fluorescence, cherry-pick, dose response (AID 720632)
T2 sequence (P55212 whole entry): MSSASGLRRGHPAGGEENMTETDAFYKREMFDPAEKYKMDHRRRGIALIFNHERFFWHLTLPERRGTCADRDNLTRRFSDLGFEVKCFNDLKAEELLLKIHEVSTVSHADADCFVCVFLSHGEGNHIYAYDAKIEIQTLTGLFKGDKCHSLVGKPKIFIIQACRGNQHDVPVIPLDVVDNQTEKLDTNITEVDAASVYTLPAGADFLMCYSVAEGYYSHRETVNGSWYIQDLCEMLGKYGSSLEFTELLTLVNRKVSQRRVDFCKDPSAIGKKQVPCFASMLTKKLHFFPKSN

[6] = molecular target: T3, RNA-binding protein pos-1 (Caenorhabditis elegans, UniProt G5EF15); test: disruptors of C. elegans POS-1 RNA interaction – biochemical, fluorescence polarization, dose response (AID 1964);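 note: purified POS-1 fused to maltose binding protein made in E. coli; potency of compounds blocking POS-1 binding to fluorescent RNA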
T3 sequence (G5EF15 whole entry): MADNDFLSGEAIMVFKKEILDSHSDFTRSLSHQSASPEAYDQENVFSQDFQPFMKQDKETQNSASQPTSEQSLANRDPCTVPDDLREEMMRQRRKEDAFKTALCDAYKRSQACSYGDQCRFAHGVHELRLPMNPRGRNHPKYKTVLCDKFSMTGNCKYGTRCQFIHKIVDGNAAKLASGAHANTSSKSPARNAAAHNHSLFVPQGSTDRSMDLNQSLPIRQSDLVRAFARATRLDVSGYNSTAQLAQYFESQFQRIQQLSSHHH

[7] = molecular target: T4, Zinc finger protein mex-5 (Caenorhabditis elegans, UniProt Q9XUB2); test: potency of MEX-5 RNA-binding blockers – biochemical, C. elegans, fluorescence polarization, dose response (AID 1960)
T4 sequence (Q9XUB2 whole entry): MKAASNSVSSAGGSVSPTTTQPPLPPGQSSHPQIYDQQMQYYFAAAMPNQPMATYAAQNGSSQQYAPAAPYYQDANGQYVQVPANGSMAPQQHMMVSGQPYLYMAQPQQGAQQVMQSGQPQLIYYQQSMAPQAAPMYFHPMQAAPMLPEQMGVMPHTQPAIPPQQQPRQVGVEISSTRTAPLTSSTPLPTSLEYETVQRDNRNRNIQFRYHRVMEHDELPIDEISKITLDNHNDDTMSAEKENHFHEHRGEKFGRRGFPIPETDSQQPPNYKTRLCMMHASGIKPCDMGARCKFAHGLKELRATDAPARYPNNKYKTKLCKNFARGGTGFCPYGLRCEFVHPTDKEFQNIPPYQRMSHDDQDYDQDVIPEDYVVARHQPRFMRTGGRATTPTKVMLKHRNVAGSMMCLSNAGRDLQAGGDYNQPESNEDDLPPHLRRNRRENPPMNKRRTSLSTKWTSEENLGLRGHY

[8] = viability of uninfected HEp-2 cells – cell-based, HTS, cytotoxicity control for RSV inhibitor project, dose response (AID 2410); type: functional; conditions: human respiratory syncytial virus
[9] = molecular target: Peroxisome proliferator-activated receptor gamma/Nuclear receptor coactivator 2 (Homo sapiens, UniProt P37231); test: (§1) TR-FRET dose response biochemical High Throughput Screening assay for agonists of the steroid receptor coactivator 2 (SRC-2) recruitment by the peroxisome proliferator-activated receptor gamma (PPAR gamma): non-selective agonists. [Related pubchem assays: 1297, 1032 ]; type: functional
Chain of Peroxisome proliferator-activated receptor gamma/Nuclear receptor coactivator 2 (P37231 whole entry): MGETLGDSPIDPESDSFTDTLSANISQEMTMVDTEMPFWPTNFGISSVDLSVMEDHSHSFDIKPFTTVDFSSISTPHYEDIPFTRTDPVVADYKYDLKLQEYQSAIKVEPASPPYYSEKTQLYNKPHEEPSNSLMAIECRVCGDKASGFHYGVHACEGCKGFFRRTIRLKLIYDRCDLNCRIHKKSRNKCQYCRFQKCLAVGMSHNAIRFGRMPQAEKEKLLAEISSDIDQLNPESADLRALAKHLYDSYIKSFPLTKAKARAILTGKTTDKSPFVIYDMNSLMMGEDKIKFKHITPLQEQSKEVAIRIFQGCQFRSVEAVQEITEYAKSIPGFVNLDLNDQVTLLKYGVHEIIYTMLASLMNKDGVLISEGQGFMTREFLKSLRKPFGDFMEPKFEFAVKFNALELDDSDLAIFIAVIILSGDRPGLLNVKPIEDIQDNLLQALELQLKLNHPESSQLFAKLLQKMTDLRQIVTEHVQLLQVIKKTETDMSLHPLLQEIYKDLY
Chain of Peroxisome proliferator-activated receptor gamma/Nuclear receptor coactivator 2 (Q15596 whole entry, further chain): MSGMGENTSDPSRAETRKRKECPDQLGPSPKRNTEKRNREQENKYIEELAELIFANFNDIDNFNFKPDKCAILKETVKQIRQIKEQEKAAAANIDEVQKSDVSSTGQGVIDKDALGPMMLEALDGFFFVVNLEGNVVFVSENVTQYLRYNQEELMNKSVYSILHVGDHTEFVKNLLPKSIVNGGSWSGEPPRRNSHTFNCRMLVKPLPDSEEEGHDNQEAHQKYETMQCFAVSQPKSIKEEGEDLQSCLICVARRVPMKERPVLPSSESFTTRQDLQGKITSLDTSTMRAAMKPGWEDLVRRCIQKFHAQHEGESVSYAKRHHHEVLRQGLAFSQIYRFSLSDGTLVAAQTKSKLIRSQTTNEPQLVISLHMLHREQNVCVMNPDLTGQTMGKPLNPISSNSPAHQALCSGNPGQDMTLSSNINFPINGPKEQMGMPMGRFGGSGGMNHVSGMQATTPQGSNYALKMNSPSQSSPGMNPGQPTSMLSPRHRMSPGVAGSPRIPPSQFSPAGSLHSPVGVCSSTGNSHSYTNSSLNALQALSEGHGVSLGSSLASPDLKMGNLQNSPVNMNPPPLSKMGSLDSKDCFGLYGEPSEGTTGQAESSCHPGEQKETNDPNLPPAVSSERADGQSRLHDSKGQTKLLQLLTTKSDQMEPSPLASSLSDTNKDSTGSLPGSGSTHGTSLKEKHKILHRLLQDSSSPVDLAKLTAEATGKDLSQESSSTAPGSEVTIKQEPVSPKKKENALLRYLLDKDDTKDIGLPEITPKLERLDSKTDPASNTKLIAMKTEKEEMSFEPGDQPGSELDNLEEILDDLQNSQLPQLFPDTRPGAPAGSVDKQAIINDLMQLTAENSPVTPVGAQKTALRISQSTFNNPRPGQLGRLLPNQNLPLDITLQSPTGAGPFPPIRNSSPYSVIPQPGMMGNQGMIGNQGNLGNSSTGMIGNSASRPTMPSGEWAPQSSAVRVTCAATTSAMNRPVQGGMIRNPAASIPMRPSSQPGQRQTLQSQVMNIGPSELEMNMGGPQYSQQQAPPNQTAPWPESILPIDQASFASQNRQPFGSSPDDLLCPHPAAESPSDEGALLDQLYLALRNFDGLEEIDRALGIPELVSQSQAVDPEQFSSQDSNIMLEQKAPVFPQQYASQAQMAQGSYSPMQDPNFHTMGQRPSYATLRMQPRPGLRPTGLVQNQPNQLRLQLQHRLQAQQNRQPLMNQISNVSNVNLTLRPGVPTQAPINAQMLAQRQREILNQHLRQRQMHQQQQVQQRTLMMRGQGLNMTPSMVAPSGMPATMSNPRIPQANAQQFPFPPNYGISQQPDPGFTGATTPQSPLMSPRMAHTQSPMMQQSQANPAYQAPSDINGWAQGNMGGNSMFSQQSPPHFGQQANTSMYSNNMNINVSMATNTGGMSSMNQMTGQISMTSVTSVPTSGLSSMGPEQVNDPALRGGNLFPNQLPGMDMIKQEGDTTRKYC

[10] = molecular target: Peroxisome proliferator-activated receptor gamma/Nuclear receptor coactivator 3 (Homo sapiens, UniProt P37231); test: as §1, with “3 (SRC-3)” for “2 (SRC-2)”, “1301 (Confirmation screen.), 1048 (Primary screen.)]” for “1297, 1032 ]”; type: functional
[11] = molecular target: Peroxisome proliferator-activated receptor gamma/Nuclear receptor coactivator 1 (Homo sapiens, UniProt P37231); test: as §1, with “1 (SRC-1)” for “2 (SRC-2)”, “assays (depositor defined):AID1300, AID1808, AID504735, AID631]” for “assays: 1297, 1032 ]”; type: protein assay
Chain of Peroxisome proliferator-activated receptor gamma/Nuclear receptor coactivator 1 (P37231 whole entry): as the sequence (P37231 whole entry) above
Chain of Peroxisome proliferator-activated receptor gamma/Nuclear receptor coactivator 1 (Q15788 whole entry, further chain): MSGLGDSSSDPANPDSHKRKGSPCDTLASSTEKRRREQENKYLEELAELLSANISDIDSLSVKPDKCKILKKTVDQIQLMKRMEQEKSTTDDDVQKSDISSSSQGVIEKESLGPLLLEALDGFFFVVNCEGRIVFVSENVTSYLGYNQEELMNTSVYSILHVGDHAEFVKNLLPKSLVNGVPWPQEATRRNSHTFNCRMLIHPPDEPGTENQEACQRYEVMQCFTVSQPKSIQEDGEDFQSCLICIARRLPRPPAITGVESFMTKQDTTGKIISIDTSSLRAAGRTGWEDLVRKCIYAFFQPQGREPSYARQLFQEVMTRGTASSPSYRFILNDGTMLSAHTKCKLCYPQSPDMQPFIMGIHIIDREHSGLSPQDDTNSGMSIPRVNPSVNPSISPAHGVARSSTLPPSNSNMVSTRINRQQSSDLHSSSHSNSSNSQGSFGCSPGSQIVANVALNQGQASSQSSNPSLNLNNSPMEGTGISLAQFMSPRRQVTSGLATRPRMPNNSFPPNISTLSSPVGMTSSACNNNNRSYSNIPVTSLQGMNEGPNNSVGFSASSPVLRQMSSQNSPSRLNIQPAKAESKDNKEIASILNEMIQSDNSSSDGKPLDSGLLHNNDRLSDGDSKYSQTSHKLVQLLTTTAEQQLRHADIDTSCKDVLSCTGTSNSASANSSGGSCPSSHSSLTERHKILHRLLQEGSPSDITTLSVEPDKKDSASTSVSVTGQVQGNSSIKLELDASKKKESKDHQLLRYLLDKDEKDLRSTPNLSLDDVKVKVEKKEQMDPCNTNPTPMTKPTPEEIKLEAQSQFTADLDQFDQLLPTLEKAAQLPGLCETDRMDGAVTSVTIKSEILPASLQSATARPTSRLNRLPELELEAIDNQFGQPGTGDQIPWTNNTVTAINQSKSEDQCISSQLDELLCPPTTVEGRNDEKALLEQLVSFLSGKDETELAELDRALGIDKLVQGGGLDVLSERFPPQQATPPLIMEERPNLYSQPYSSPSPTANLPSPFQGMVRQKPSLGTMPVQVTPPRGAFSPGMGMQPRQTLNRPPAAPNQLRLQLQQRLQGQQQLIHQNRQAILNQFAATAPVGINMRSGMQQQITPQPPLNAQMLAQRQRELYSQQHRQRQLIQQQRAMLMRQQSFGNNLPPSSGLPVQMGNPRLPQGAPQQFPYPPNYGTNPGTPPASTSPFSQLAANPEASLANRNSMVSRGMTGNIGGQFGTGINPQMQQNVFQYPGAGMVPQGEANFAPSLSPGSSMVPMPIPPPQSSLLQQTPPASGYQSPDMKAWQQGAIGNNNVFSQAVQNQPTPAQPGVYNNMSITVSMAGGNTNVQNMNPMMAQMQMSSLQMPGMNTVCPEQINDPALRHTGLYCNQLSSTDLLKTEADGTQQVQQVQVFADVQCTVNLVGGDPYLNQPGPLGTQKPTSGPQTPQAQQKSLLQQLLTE

[12] = molecular target: T5, Histone-lysine N-methyltransferase NSD2 (Homo sapiens, UniProt O96028); type: biochemical
T5 sequence (O96028 whole entry): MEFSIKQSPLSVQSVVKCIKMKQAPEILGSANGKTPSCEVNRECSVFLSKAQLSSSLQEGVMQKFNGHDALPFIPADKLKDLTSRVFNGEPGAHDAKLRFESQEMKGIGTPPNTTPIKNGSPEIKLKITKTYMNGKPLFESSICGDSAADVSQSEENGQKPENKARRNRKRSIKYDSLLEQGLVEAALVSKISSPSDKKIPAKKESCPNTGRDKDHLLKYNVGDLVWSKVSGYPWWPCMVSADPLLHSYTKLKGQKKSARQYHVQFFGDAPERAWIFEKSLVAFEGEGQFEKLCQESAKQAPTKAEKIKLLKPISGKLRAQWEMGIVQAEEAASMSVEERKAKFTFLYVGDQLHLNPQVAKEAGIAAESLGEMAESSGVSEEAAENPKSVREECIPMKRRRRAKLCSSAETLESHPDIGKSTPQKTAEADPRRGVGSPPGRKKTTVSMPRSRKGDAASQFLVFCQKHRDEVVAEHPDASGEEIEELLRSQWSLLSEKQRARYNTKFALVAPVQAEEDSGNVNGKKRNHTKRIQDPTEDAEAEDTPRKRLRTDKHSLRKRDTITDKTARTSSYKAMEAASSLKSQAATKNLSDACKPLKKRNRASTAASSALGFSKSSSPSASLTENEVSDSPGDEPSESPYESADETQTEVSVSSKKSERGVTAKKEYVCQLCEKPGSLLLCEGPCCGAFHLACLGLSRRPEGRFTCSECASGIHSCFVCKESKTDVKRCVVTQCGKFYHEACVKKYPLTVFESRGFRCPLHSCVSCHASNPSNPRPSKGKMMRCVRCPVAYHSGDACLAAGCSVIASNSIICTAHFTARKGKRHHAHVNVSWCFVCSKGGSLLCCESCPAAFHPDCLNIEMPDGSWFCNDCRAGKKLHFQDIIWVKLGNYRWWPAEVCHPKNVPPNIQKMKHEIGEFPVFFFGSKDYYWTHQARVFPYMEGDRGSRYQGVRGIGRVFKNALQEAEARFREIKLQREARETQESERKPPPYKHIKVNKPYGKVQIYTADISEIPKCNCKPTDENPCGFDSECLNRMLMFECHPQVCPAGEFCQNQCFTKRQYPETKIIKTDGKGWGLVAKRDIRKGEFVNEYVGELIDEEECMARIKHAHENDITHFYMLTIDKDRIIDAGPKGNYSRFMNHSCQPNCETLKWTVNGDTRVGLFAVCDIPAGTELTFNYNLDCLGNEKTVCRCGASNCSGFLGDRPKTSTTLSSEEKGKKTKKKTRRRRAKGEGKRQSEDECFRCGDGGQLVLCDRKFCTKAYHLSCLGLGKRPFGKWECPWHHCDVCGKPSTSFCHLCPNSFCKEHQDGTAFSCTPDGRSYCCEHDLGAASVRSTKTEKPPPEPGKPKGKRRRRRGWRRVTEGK

[13] = system: INS1; test: INS-1E survival protection against cytokine death – cell-based, luminescence, retest, dose response (AID 449756); type: functional; conditions: Rattus norvegicus;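 note: cell death triggered by IL-1 beta plus TNF-alpha plus IFN-gamma mixture; protective hits raise ATP signal compared with cytokine alone wells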
[14] = molecular target: T6, Galanin receptor type 3 (Homo sapiens, UniProt O60755); test: Fluorescence-based cell-based primary high throughput dose response assay to identify antagonists of the Galanin Receptor 3 (GalR3).; type: functional
T6 sequence (O60755 whole entry): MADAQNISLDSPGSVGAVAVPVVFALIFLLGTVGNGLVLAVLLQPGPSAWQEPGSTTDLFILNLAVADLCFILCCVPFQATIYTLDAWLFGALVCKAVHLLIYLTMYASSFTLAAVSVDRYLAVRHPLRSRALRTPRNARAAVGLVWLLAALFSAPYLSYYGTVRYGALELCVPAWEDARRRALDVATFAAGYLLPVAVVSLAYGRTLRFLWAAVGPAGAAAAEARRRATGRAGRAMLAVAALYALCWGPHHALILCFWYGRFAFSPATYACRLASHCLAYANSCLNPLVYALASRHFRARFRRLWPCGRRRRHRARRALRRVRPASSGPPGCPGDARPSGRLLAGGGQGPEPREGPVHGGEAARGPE

[15] = cells; type: functional, cell-based; conditions: HEK-CNG
[16] = system: Vero; test: cells; type: functional; conditions: Chlorocebus sabaeus
[17] = molecular target: Paired box protein Pax-8 (Homo sapiens, UniProt Q06710); test: PAX8 transcriptional activity inhibition in RMG-I – RMG-I cells, luciferase, cherry-pick, dose response (AID 687027); type: functional, cell-based;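 note: luciferase reporter driven by Pax8 target thyroperoxidase promoter measured by SteadyGlo luminescence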
Chain of Paired box protein Pax-8 (Q06710 whole entry): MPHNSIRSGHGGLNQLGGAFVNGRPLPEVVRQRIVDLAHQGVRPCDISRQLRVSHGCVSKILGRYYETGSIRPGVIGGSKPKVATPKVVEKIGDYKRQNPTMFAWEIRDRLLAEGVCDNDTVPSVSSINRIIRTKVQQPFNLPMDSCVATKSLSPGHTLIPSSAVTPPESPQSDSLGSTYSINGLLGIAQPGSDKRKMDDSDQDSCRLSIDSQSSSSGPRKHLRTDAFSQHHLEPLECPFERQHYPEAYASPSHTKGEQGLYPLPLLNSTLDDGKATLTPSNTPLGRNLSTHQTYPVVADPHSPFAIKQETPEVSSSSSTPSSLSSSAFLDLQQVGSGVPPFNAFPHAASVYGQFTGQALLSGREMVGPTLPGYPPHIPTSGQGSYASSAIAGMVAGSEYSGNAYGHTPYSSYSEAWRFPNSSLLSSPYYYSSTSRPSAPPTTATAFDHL

[18] = molecular target: T7, Calpain-2 catalytic subunit (Sus scrofa, UniProt P43367); test: m-calpain protease blockers, concentration series – biochemical, fluorogenic peptide substrate, dose response (AID 1420); type: functional
T7 sequence (P43367 whole entry): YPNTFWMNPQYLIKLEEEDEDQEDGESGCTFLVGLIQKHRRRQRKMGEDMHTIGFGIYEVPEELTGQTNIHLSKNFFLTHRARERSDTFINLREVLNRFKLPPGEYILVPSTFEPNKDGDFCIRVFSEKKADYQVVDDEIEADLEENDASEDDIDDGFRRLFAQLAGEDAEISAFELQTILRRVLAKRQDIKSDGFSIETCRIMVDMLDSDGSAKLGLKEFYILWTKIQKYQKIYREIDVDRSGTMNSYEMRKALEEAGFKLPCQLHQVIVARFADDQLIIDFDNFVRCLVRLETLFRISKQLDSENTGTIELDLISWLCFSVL

[19] = molecular target: Induced myeloid leukemia cell differentiation protein Mcl-1 (Homo sapiens, UniProt Q07820); type: functional
Chain of Induced myeloid leukemia cell differentiation protein Mcl-1 (Q07820 whole entry): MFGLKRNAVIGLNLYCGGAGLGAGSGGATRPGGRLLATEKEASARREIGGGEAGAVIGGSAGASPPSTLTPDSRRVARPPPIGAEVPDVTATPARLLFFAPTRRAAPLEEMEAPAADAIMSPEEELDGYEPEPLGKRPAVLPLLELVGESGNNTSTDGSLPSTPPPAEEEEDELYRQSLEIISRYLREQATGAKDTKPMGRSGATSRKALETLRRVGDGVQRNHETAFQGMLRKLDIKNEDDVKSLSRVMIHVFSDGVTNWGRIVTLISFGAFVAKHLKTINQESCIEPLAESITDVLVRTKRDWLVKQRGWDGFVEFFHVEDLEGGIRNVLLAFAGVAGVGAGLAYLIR

SMILES: CCCn1c(=N)n(CC(O)c2ccco2)c2ccccc21 (stereo unspecified)
- IC50 [1]: > 100 µM (active)

SMILES: Cc1ccc(C(=O)N2c3ccc(F)cc3CCC2C)o1 (stereo unspecified)
- IC50 [1]: > 100 µM (active)

SMILES: COc1ccc(N2CCN(CCNC(=O)Nc3ccc(Cl)cc3)CC2)cc1
- IC50 [1]: > 100 µM (active)

SMILES: COc1cccc(CNc2ccccc2O)c1OCc1ccccc1F
- IC50 [2]: > 100 µM (active)

SMILES: O=C1/C(=C/c2ccc(C(=O)O)cc2)CCC/C1=C\c1ccc(C(=O)O)cc1
- IC50 [3]: 62.7 µM (active)
- IC50 [4]: > 100 µM (active)

SMILES: N#CC1=C(N)Oc2cc(O)c(Cl)cc2C1c1ccccc1F (stereo unspecified)
- AC50 [5]: 42.2 µM (active)
- EC50 [6]: > 300 µM (not active)
- EC50 [7]: > 300 µM (not active)

SMILES: N#CC1=C(N)Oc2c(c(=O)oc3ccccc23)C1c1ccc([N+](=O)[O-])o1 (stereo unspecified)
- AC50 [5]: 13.9 µM (active)

SMILES: Cc1c(NC(=S)NC(=O)c2ccc(-c3ccc(Cl)cc3)o2)cccc1C(=O)O
- IC50 [3]: 29.7 µM (active)
- CC50 [8]: 35.4 µM (active)

SMILES: COc1c(F)c(F)c(C(=O)Nc2ccc3oc(-c4ccncc4)nc3c2)c(F)c1F
- EC50 [9]: 20.6 µM (not active)
- EC50 [10]: 57.7 µM (not active)
- IC50 [1]: > 100 µM (active)
- EC50 [11]: 21.5 µM (inactive)

SMILES: CCOc1ccc(NC(=O)CCn2cccc2)cc1
- IC50 [2]: > 100 µM (active)

SMILES: Cc1ccc(-c2[nH]nc3c2C(c2ccoc2)C(C#N)=C(N)O3)cc1C (stereo unspecified)
- IC50 [3]: 3.65 µM (active)

SMILES: CN(C)c1ccc(CNCCC(Cc2ccccc2)c2ccco2)cc1 (stereo unspecified)
- AC50 [12]: > 20 µM (inactive)

SMILES: Cc1ccc(NC(=O)CCn2cnc3ccccc3c2=O)cc1Cl
- IC50 [2]: > 100 µM (active)

SMILES: CCOc1ccc(NC=C2C(=O)CC(C)(C)CC2=O)cc1
- IC50 [2]: > 100 µM (active)

SMILES: COc1ccc(-c2csc(NC(=O)c3ccccc3NS(=O)(=O)c3ccc(F)c(F)c3)n2)cc1
- AC50 [13]: 3.05 µM (active)
- IC50 [14]: 1.4 µM (active)
- EC50 [15]: > 29.9 µM (inactive)
- CC50 [16]: 2.03 µM (active)
- AC50 [17]: 2.64 µM (active)
- IC50 [18]: > 50 µM (not active)

SMILES: CSc1nc2ccc(NS(=O)(=O)c3cccc(Cl)c3Cl)cc2s1
- IC50 [2]: > 100 µM (active)

SMILES: COc1ccc(NC(=O)CN2C(=O)CSC(C)C2=O)cc1 (stereo unspecified)
- IC50 [3]: 3.83 µM (active)

SMILES: O=c1nc2s/c(=C\c3ccc(-c4ccccc4[N+](=O)[O-])o3)c(=O)n2nc1-c1ccccc1
- AC50 [5]: 18 µM (active)
- IC50 [19]: 9.66 µM (active)

Source: ChEMBL document CHEMBL1201862, “PubChem BioAssay data set” (2004)
